According to paper PMC6057745, “The dual role of chloride in synaptic vesicle glutamate transport” (eLife, 2018):
pEC50, pIC50: −log10 of the molar value.

Experiments:
[1] = biological target: T1, VGLUT1 (Rattus norvegicus, UniProt Q62634); assay: whole endosome patch clamp, block of Cl- and glutamate currents; format: biochemical
T1 construct: gene Slc17a7; full-length rat VGLUT1 fused to EGFP (pEGFP-N1); co-expressed with Rab5 Q79L-mCherry in HEK293T; whole endosome recording of isolated enlarged endosomes
T1 sequence (Q62634 1-560): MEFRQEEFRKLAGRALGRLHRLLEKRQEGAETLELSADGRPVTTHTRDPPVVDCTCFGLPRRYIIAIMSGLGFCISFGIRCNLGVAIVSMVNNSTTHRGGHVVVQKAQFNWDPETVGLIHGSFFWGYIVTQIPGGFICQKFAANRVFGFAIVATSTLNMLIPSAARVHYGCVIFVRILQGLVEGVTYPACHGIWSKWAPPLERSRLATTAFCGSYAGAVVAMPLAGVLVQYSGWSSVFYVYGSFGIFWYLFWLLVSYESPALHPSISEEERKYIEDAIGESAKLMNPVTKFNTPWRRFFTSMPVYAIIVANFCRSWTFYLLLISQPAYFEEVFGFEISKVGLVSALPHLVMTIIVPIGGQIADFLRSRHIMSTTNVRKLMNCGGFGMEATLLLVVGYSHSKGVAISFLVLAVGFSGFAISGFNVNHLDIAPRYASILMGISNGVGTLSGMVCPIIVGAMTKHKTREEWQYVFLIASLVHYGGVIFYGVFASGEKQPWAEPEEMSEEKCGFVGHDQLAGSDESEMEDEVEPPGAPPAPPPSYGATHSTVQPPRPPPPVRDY

[2] = biological target: T1, VGLUT1; assay: whole endosome patch clamp, outward glutamate currents; format: biochemical
Protocol: whole endosome patch clamp, outward glutamate currents on VGLUT1 | glutamate currents saturate with EC50376 µM

## Cc1cc(-c2ccc(/N=N/c3ccc4c(S(=O)(=O)O)cc(S(=O)(=O)O)c(N)c4c3O)c(C)c2)ccc1/N=N/c1ccc2c(S(=O)(=O)O)cc(S(=O)(=O)O)c(N)c2c1O [Evans Blue]
[1]
  pIC50: ~6.70

## N[C@@H](CCC(=O)O)C(=O)O [glutamate]
[2]
  pEC50: 3.42
